This note sets out measurements from patent US10538534B2 (Colorado State University Research Foundation, priority 2015, dated 2020).

A short description of one series: Solubility in solvents. As to the method:
Trityl thiol was dissolved in 0.6 mL of DCM and cooled to 0° C. TFA (30 μL) and iPr3SiH (2.0 μL, 10 μmol) were added to the solution at 0° C. The bath was removed and the reaction was allowed to stir at room temperature for 1 h. Solvent was removed by argon flow and the residue 14 is taken crude for biological evaluation.

Series [1] relates to NOTCH1 mutated T-ALL cells (ALL/SIL). The experiment in a line: ATP-based cell viability assay (CellTiter-Glo) in T-ALL cells. The following applies: ALL/SIL, 72, 144, 216 hours, 10 μM to 0.078 μM, FIGS. 14-16. As to the method: (§1) To test the hypothesis that largazole folate-conjugated small molecules target T-ALL, dose-ranging ATP content assays were performed. […] Next, an ATP-based assay (CellTiter-Glo, Promega®) was used to calculate the half-maximal inhibitory concentration (IC50) of cell viability. Graphs were plotted as a fraction of cells alive (y-axis) using Prism GraphPad 6 software and drug doses expressed as Log [μM] (x-axis).

Series [2] concerns NOTCH1 mutated T-ALL cells (DND41). Described as above. The following applies: DND41, 72, 144, 216 hours, 10 μM to 0.078 μM, FIGS. 11-13. As to the method:
as §1

In another series the test system is Class I HDAC. The experiment in a line: HDAC biochemical selectivity profiling. The following applies: FIG. 1B, versus free Largazole-thiol.
The subject of another series is HDACs1, 2 & 3. Description: Affinity precipitation from HeLa Nuclear Extract with streptavidin beads, immunoblot. The following applies: 1 μM in 200 μL HeLa Nuclear Extract, 16 hr incubation, FIG. 1C. Format: binding. The procedure: 1 μM Largazole-Btn (54) in 200 μL of HeLa Nuclear Extract […] of streptavidin beads added after 16 hr incubation with compound.

A further series addresses HDAC1 (Homo sapiens, UniProt Q13547). The experiment in a line: Biochemical profiling for HDACi activity, miniaturized assay platform (HDAC1-9).
Another series deals with T1, HDAC8 (Homo sapiens, UniProt Q9BY41).
T1 sequence (Q9BY41 1-377): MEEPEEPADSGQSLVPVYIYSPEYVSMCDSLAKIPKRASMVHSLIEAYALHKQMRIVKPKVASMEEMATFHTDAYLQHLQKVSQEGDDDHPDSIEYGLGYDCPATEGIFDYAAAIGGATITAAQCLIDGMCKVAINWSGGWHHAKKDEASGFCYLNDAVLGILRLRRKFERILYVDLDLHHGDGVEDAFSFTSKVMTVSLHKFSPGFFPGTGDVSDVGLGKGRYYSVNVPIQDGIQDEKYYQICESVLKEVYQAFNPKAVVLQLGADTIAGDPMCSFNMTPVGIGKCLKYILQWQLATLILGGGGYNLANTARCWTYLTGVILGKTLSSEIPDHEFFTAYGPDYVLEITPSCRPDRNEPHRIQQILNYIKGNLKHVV
The series is described as above. The settings on record: compared with IC50 for HDACs 1-3.

A further series deals with tumor. The experiment in a line: In vivo tumor growth inhibition study. The source says: Although the distribution effect of these compounds is similar, there is a notable difference in drug exposure of ˜30 percent for the peptide isostere.
A further series has as its target HDAC2 (Homo sapiens, UniProt Q92769). Description: Biochemical profiling for HDACi activity, miniaturized assay platform (HDAC1-9).

Read-outs that look alike come from different tables or passages of the source.

Broadly, the IC50 is the midpoint of a concentration-inhibition curve. A high value points to weaker potency.

HDAC2, sequence (Q92769 whole entry): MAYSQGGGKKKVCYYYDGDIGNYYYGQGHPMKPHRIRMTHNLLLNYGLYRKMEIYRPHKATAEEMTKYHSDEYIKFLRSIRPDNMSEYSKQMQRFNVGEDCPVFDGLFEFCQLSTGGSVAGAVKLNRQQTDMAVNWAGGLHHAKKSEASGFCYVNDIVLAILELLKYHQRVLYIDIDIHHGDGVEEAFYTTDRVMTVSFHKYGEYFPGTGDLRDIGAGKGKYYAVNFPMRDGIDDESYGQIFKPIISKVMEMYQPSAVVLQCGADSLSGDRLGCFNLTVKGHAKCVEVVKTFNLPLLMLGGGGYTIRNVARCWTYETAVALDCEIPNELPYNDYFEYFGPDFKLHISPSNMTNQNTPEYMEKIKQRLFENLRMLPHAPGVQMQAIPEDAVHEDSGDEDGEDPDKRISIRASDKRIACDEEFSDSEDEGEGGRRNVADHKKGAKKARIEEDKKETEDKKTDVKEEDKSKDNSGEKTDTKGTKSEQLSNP
HDAC1, sequence (Q13547 whole entry): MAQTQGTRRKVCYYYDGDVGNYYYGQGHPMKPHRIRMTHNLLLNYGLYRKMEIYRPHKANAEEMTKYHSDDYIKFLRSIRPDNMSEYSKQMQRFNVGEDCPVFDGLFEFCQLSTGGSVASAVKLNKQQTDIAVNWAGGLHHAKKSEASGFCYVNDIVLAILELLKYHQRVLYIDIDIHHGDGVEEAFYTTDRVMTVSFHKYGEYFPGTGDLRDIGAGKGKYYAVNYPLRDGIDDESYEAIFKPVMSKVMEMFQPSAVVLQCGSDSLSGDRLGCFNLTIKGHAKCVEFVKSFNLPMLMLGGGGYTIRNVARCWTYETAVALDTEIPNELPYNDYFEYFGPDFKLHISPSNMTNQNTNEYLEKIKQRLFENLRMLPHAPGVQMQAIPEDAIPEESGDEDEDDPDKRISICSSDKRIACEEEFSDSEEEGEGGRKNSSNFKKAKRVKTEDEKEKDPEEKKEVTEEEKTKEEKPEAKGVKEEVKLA

For the molecule `CC(C)C1NC(=O)[C@]2(C)CSC(=N2)c2nc(sc2-c2ccc(CNC(=O)CC[C@H](NC(=O)c3ccc(NCc4cnc5nc(N)[nH]c(=O)c5n4)cc3)C(=O)O)cc2)CNC(=O)CC(/C=C/CCS)NC1=O` (some centres unmarked), in “Solubility in solvents” (FIG. 10 legend), the “solubility (solvents)” value is recorded as “only soluble in DMSO”.

Regarding `CCCCCCCC(=O)SCC/C=C/C1CC(=O)NCc2nc(c(-c3ccc(CNC(=O)CC[C@H](NC(=O)c4ccc(NCc5cnc6nc(N)[nH]c(=O)c6n5)cc4)C(=O)O)cc3)s2)C2=N[C@@](C)(CS2)C(=O)NC(C(C)C)C(=O)N1` (some centres unmarked), the “solubility (solvents)” value in the series “Solubility in solvents” was “soluble in mixture of CH2Cl2-MeOH, or DMSO”.

For the molecule `CCCCCCCC(=O)SCC/C=C/C1CC(=O)NCc2nc(c(-c3ccc(COC(=O)CC[C@H](NC(=O)c4ccc(NCc5cnc6nc(N)[nH]c(=O)c6n5)cc4)C(=O)O)cc3)s2)C2=N[C@@](C)(CS2)C(=O)NC(C(C)C)C(=O)N1` (some centres unmarked), the cell viability result in series [1] and in [2] was “loss of cellular viability” in each case. Also, the “solubility (solvents)” value in the series “Solubility in solvents” (FIG. 10 legend) was “soluble in MeOH, CHCl3, DMSO”.

With `CC(C)[C@@H]1NC(=O)[C@]2(C)CSC(=N2)c2nc(sc2-c2ccc(CNC(=O)CC[C@H](NC(=O)c3ccc(NCc4cnc5nc(N)[nH]c(=O)c5n4)cc3)C(=O)O)cc2)CNC(=O)CC(/C=C/CCS)NC1=O` (some centres unmarked) [Compound 14], in “Solubility in solvents” (crude product), the “solubility in organic solvent” value was “very poor” and the solubility in water entry is “not soluble in water”.

`CC(C)[C@@H]1NC(=O)[C@]2(C)CSC(=N2)c2nc(sc2-c2ccc(CNC(=O)CCCCCNC(=O)CCCCCNC(=O)CCCCC3SC[C@@H]4NC(=O)N[C@H]34)cc2)CNC(=O)CC(/C=C/CCS)OC1=O` (some centres unmarked) [Largazole-Biotin]: the biochemical selectivity entry in the series with Class I HDAC is “compares favorably to free Largazole-thiol”. Moreover, the “affinity precipitation of HDACs by immunoblot” value with HDACs1, 2 & 3 was “affinity precipitation of HDACs1, 2 & 3”.

In the case of `CCCCCCCC(=O)SCC/C=C/[C@@H]1CC(=O)NCc2nc(cs2)C2=N[C@@](C)(CS2)C(=O)N[C@@H](C(C)C)C(=O)O1` [Largazole], the IC50 at HDAC1 and at HDAC2 was below 20 nM in each case. Besides, on HDAC8, the “IC50 HDAC8” value is given as “much higher”. Moreover, the tumor growth inhibition in the series on tumor amounted to 34%.

For largazole thiol, the tumor growth inhibition in the series on tumor came out at 44%.
